Calls of active or inactive are those of the source.
What was measured:
[1] = biological target: T1, Apoptotic protease-activating factor 1 (Homo sapiens, UniProt O14727); experiment: SAR analysis of small molecule Activators of Apaf-1 in a Fluorescent assay - set 2.; type: functional; conditions: read-out: EC50_Mean
T1 sequence (O14727 whole entry): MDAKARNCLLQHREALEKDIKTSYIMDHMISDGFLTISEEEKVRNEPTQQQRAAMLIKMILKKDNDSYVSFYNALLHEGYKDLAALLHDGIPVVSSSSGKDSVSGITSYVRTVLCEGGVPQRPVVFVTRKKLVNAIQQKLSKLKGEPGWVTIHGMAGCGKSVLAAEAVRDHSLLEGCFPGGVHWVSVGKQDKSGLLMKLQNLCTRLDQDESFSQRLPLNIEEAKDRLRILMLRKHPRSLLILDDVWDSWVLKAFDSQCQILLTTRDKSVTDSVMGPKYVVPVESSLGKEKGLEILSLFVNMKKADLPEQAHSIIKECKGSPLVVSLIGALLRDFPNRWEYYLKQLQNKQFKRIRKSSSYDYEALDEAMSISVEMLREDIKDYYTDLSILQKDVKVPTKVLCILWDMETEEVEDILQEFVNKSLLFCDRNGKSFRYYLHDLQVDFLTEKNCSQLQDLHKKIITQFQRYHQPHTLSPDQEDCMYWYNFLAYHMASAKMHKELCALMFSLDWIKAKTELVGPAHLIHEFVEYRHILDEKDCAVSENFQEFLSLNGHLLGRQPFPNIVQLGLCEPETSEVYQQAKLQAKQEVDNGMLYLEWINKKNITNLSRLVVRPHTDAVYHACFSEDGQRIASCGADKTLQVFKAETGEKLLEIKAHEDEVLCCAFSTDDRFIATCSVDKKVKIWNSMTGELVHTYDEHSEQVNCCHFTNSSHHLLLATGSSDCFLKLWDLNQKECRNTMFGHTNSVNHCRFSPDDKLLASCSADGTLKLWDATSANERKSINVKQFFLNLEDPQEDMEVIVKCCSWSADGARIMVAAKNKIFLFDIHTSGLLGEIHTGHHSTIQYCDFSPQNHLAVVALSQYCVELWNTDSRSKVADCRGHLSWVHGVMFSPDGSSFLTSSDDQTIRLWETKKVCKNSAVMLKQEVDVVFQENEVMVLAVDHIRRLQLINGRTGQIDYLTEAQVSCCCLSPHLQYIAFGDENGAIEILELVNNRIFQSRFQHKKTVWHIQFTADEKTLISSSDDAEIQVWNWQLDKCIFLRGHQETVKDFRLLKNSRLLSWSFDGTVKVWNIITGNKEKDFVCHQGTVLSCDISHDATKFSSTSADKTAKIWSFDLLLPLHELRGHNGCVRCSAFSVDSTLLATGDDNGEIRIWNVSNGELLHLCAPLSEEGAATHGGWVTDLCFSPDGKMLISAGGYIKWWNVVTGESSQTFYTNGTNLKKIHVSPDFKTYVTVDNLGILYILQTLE

[2] = SAR analysis of small molecule activators of Apaf-1 using a LZ-Caspase-9/Caspase-3 Fluorescent Selectivity assay - Set 2.; type: functional; conditions: read-out: EC50_Mean

EC50 [1]: > 100 µM (inactive)
EC50 [2]: > 100 µM (inactive)
SMILES: COc1cc(OC)c(C2=NOC(C(=O)O)C2)cc1Cl (configuration not stated)

Source: ChEMBL document CHEMBL1201862, “PubChem BioAssay data set” (2004)
